Measured values from patent US20240008482A1, “METHOD OF IN[…] VIRUS USING A GLUT[…] COMPOSITION” (priority 2021, published 2024).

Legend:
MNV = assay type: cell-based, Murine Norovirus (MNV)
poliovirus type 1 = assay type: cell-based
adenovirus type 5 = assay type: cell-based
SARS-CoV (Hanoi strain) = conditions: cited from earlier work
SARS-CoV (Isolate FFM-1) = conditions: cited from earlier work
HCoV-229E = conditions: 2% glutaraldehyde; cited from earlier work

Compound	reduction of viral titre achieved (MNV) [log10]	reduction of viral titre achieved (poliovirus type 1) [log10]	time after which a 4 log10 reduction is achieved (adenovirus type 5) [minutes]	time to inactivate the virus (SARS-CoV (Hanoi strain)) [min]	time to inactivate the virus (SARS-CoV (Isolate FFM-1)) [min]	effectiveness against the virus (HCoV-229E)
C=O [formaldehyde]	< 4	< 4	30	–	–	–
O=CCCCC=O [glutaraldehyde]	–	–	–	5	2	effective
